Test results from patent US11370763B2, “Compounds and compositions for treating conditions associated with NLRP activity” (Novartis AG, priority 2017, dated 2022).
Read-outs that look alike come from different tables or passages of the source.

Test system: IL-1β production in PMA-differentiated THP-1 cells
Assay: IL-1β production in PMA-differentiated THP-1 cells stimulated with gramicidin (hTHP-1 assay containing 2% fetal bovine serum; Procedures 1-3)
Type: cell-based, human
Details: Homo sapiens, THP-1, hTHP-1 assay containing 2% fetal bovine serum, read-out: hTHP-1 IC50 (Average IC50 of compounds in hTHP-1 assay)
Summary of the method: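 THP-1 cells differentiated with PMA (20 ng/ml, 16-18 h), replated in 2% FBS RPMI (50,000 cells/well), preincubated 1 h with compound (top final 100 μM, 3-fold steps, 0.37% DMSO), then stimulated 2 h with gramicidin (5 μM). Supernatant IL-1β measured by HTRF.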

Compound	IC50 (given as numeric bound)	IC50 (class symbols)
CNS(=O)(=NC(=O)Cc1c2c(cc3c1CCC3)CCC2)c1ncc(C(C)(C)O)s1 (centres unmarked) [Example 12, 2-(1,2,3,5,6,7-Hexahydro-s-indacen-4-yl)-N-(5-(2-hydroxypropan-2-yl)-N-methylthiazole-2-sulfonimidoyl)acetamide]	> 30000 nM	–
CC(C)c1cc(F)cc(C2CC2)c1CC(=O)N=S(N)(=O)c1ccc(CN(C)C)cc1 (centres unmarked) [Example 15, 2-(2-cyclopropyl-4-fluoro-6-isopropylphenyl)-N-(4-((dimethylamino)methyl)phenyl-sulfonimidoyl)acetamide]	–	1000 to 5000 nM
CC(C)c1c(F)c(C#N)cc(C2CC2)c1CC(=O)N=S(N)(=O)c1sc(C(C)(C)O)cc1F (centres unmarked) [Example 19, 2-(4-cyano-6-cyclopropyl-3-fluoro-2-isopropylphenyl)-N-(3-fluoro-5-(2-hydroxypropan-2-yl)thiophen-2-ylsulfonimidoyl)acetamide]	–	8 to 40 nM
CC(C)c1cc(C#N)cc(C(C)C)c1CC(=O)N=S(N)(=O)c1sc(C(C)(C)O)nc1CO (centres unmarked) [Example 22, 2-(4-cyano-2,6-diisopropylphenyl)-N-(4-(hydroxymethyl)-2-(2-hydroxypropan-2-yl)thiazol-5-ylsulfonimidoyl)acetamide]	–	200 to 1000 nM
CC(C)(O)c1nc(CO)c(S(N)(=O)=NC(=O)Cc2c3c(cc4c2CCC4)CCC3)s1 (centres unmarked) [Example 23, 2-(1,2,3,5,6,7-hexahydros-indacen-4-yl)-N-(4-(hydroxymethyl)-2-(2-hydroxypropan-2-yl)thiazol-5-ylsulfonimidoyl)acetamide]	–	1000 to 5000 nM
COCc1cc(C(C)C)c(CC(=O)N=S(N)(=O)c2sc(C(C)(C)O)nc2CO)c(C(C)C)c1 (centres unmarked) [Example 24, 2-(2,6-diisopropyl-4-(methoxymethyl)phenyl)-N-(4-(hydroxymethyl)-2-(2-hydroxypropan-2-yl)thiazole-5-sulfonimidoyl)acetamide]	–	200 to 1000 nM
CC(C)c1cc(C#N)cc(C2CC2)c1CC(=O)N=S(N)(=O)c1sc(C(C)(C)O)nc1CO (centres unmarked) [Example 25, 2-(4-cyano-2-cyclopropyl-6-isopropylphenyl)-N-(4-(hydroxymethyl)-2-(2-hydroxypropan-2-yl)thiazole-5-sulfonimidoyl)acetamide]	–	1000 to 5000 nM
Cc1cc(CN(C)C)ccc1S(N)(=O)=NC(=O)Cc1c(C(C)C)cc(OC(F)F)cc1C1CC1 (centres unmarked) [Example 26, 2-(2-cyclopropyl-4-(difluoromethoxy)-6-isopropylphenyl)-N-(4-((dimethylamino)methyl)-2-methylphenylsulfonimidoyl) acetamide]	–	1000 to 5000 nM
CC(C)c1cc(OC(F)F)cc(C(C)C)c1CC(=O)N=S(N)(=O)c1ccc(CN(C)C)cc1 (centres unmarked) [Example 27, 2-(4-(difluoromethoxy)-2,6-diisopropylphenyl)-N-(4-((dimethylamino)methyl)phenyl-sulfonimidoyl)acetamide]	–	1000 to 5000 nM
CC(C)c1cc(C#N)cc(C(C)C)c1CC(=O)N=S(N)(=O)c1ccc(CN(C)C)cc1 (centres unmarked) [Example 28, 2-(4-cyano-2,6-diisopropylphenyl)-N-(4-((dimethylamino)methyl)phenyl-sulfonimidoyl)acetamide]	–	1000 to 5000 nM
CC(C)c1cc(C#N)cc(C2CC2)c1CC(=O)N=S(N)(=O)c1ccc(CN(C)C)cc1 (centres unmarked) [Example 29, 2-(4-cyano-2-cyclopropyl-6-isopropylphenyl)-N-(4-((dimethylamino)methyl)phenyl-sulfonimidoyl)acetamide]	–	5000 to 30000 nM
CCc1cc(C#N)cc(C(C)C)c1CC(=O)N=S(N)(=O)c1ccc(CN(C)C)cc1 (centres unmarked) [Example 30, 2-(4-cyano-2-ethyl-6-isopropylphenyl)-N-(4-((dimethylamino)methyl)phenyl-sulfonimidoyl)acetamide]	–	5000 to 30000 nM
CC(C)c1cc(F)cc(C2CC2)c1CC(=O)N=S(N)(=O)c1ccc(CN(C)C)cc1F (centres unmarked) [Example 31, 2-(2-cyclopropyl-4-fluoro-6-isopropylphenyl)-N-(4-((dimethylamino)methyl)-2-fluorophenylsulfonimidoyl) acetamide]	–	1000 to 5000 nM
CC(C)c1cc(C#N)cc(C2CC2)c1CC(=O)N=S(N)(=O)c1ccc(CN(C)C)cc1F (centres unmarked) [Example 32, 2-(4-cyano-2-cyclopropyl-6-isopropylphenyl)-N-(4-((dimethylamino)methyl)-2-fluorophenylsulfonimidoyl) acetamide]	–	5000 to 30000 nM
CC(C)c1cc(C#N)cc(C(C)C)c1CC(=O)N=S(N)(=O)c1ccc(C(C)(C)O)cc1Cl (centres unmarked) [Example 34, N-(2-chloro-4-(2-hydroxypropan-2-yl)phenylsulfonimidoyl)-2-(4-cyano-2,6-diisopropylphenyl)acetamide]	–	1000 to 5000 nM
Cc1nc(C(C)(C)O)sc1S(N)(=O)=NC(=O)Cc1c(C(C)C)cc(C#N)cc1C(C)C (centres unmarked) [Example 40, 2-(4-cyano-2,6-diisopropylphenyl)-N-(2-(2-hydroxypropan-2-yl)-4-methylthiazole-5-sulfonimidoyl)acetamide]	–	200 to 1000 nM
CC(C)c1ccc(F)c(C(C)C)c1CC(=O)N=S(N)(=O)c1ccc2c(cnn2C)c1 (centres unmarked) [Example 90, N-(amino(1-methyl-1H-indazol-5-yl)(oxo)-λ^6-sulfaneylidene)-2-(3-fluoro-2,6-diisopropylphenyl)acetamide]	–	5000 to 30000 nM
CC(C)c1ccc(F)c(C(C)C)c1CC(=O)N=S(N)(=O)c1ccc(CN(C)C)cn1 (centres unmarked) [Example 91, N-(amino(5-((dimethylamino)methyl)pyridin-2-yl)(oxo)-λ^6-sulfaneylidene)-2-(3-fluoro-2,6-diisopropylphenyl)acetamide]	–	5000 to 30000 nM
CC(C)c1cncc(C(C)C)c1CC(=O)NS(=O)(=O)c1sc(C(C)(C)O)nc1CO [Example 92, 2-(3,5-diisopropylpyridin-4-yl)-N-((4-(hydroxymethyl)-2-(2-hydroxypropan-2-yl)thiazol-5-yl)sulfonyl)acetamide]	> 30000 nM	–
CC(C)c1cc(C2(O)COC2)cc(C(C)C)c1CC(=O)N=S(N)(=O)c1ncc(C(C)(C)O)s1 (centres unmarked) [Example 93, N-(amino(5-(2-hydroxypropan-2-yl)thiazol-2-yl)(oxo)-λ^6-sulfaneylidene)-2-(4-(3-hydroxyoxetan-3-yl)-2,6-diisopropylphenyl)acetamide]	> 30000 nM	–

Further lines, results first:

IC50 (given as numeric bound)	IC50 (class symbols)	Compound
–	8 to 40 nM	CC(C)c1cc(C#N)c(F)c(C(C)C)c1CC(=O)N=S(N)(=O)c1sc(C(C)(C)O)cc1F (centres unmarked) [Example 14, 2-(4-cyano-3-fluoro-2,6-diisopropylphenyl)-N-(3-fluoro-5-(2-hydroxypropan-2-yl)thiophen-2-ylsulfonimidoyl)acetamide]
–	200 to 1000 nM	CC(C)c1cc(OC(F)F)cc(C(C)C)c1CC(=O)N=S(N)(=O)c1cnc(C(C)(C)O)s1 (centres unmarked) [Example 16, 2-(4-(difluoromethoxy)-2,6-diisopropylphenyl)-N-(2-(2-hydroxypropan-2-yl)thiazol-5-ylsulfonimidoyl)acetamide]
–	8 to 40 nM	CC(C)c1cc(F)cc(C(C)C)c1CC(=O)N=S(N)(=O)c1sc(C(C)(C)O)cc1F (centres unmarked) [Example 17, 2-(4-fluoro-2,6-diisopropylphenyl)-N-(3-fluoro-5-(2-hydroxypropan-2-yl)thiophen-2-ylsulfonimidoyl)acetamide]
–	40 to 200 nM	CC(C)c1cc(F)cc(C2CC2)c1CC(=O)N=S(N)(=O)c1sc(C(C)(C)O)cc1F (centres unmarked) [Example 18, 2-(2-cyclopropyl-4-fluoro-6-isopropylphenyl)-N-(3-fluoro-5-(2-hydroxypropan-2-yl)thiophen-2-ylsulfonimidoyl)acetamide]
–	200 to 1000 nM	CC(C)c1cc(Cl)c(F)c(C2CC2)c1CC(=O)N=S(N)(=O)c1sc(C(C)(C)O)cc1F (centres unmarked) [Example 20, 2-(4-chloro-2-cyclopropyl-3-fluoro-6-isopropylphenyl)-N-(3-fluoro-5-(2-hydroxypropan-2-yl)thiophen-2-ylsulfonimidoyl)acetamide]
–	40 to 200 nM	CC(C)c1cc(OC(F)F)cc(C(C)C)c1CC(=O)N=S(N)(=O)c1sc(C(C)(C)O)cc1F (centres unmarked) [Example 21, 2-(4-(difluoromethoxy)-2,6-diisopropylphenyl)-N-(3-fluoro-5-(2-hydroxypropan-2-yl)thiophen-2-ylsulfonimidoyl)acetamide]
–	200 to 1000 nM	CC(C)c1cc(C(F)F)cc(C(C)C)c1CC(=O)N=S(N)(=O)c1ccc(C(C)(C)O)cc1F (centres unmarked) [Example 33, 2-(4-(difluoromethyl)-2,6-diisopropylphenyl)-N-(2-fluoro-4-(2-hydroxypropan-2-yl)phenylsulfonimidoyl)acetamide]
–	200 to 1000 nM	CC(C)c1cc(C(F)F)cc(C(C)C)c1CC(=O)N=S(N)(=O)c1ccc(CN(C)C)cc1F (centres unmarked) [Example 35, 2-(4-(difluoromethyl)-2,6-diisopropylphenyl)-N-(4-((dimethylamino)methyl)-2-fluorophenylsulfonimidoyl) acetamide]
–	200 to 1000 nM	CCc1cc(OC(F)F)cc(C(C)C)c1CC(=O)N=S(N)(=O)c1sc(C(C)(C)O)cc1F (centres unmarked) [Example 36, 2-(4-(difluoromethoxy)-2-ethyl-6-isopropylphenyl)-N-(3-fluoro-5-(2-hydroxypropan-2-yl)thiophene-2-sulfonimidoyl)acetamide]
–	40 to 200 nM	CC(C)c1cc(C(F)F)cc(C(C)C)c1CC(=O)N=S(N)(=O)c1sc(C(C)(C)O)cc1F (centres unmarked) [Example 37, 2-(4-(difluoromethyl)-2,6-diisopropylphenyl)-N-(3-fluoro-5-(2-hydroxypropan-2-yl)thiophene-2-sulfonimidoyl)acetamide]
–	200 to 1000 nM	CC(C)c1cc(C#N)cc(C(C)C)c1CC(=O)N=S(N)(=O)c1ncc(C(C)(C)O)s1 (centres unmarked) [Example 38, 2-(4-cyano-2,6-diisopropylphenyl)-N-(5-(2-hydroxypropan-2-yl)thiazole-2-sulfonimidoyl)acetamide]
–	200 to 1000 nM	Cc1nc(C(C)(C)O)sc1S(N)(=O)=NC(=O)Cc1c(C(C)C)cc(OC(F)F)cc1C(C)C (centres unmarked) [Example 39, 2-(4-(difluoromethoxy)-2,6-diisopropylphenyl)-N-(2-(2-hydroxypropan-2-yl)-4-methylthiazole-5-sulfonimidoyl)acetamide]
